Measured values: patent US20210346329A1, “TCA CYCLE INTERMEDIATES AND METHODS OF USE THEREOF” (IMBRIA PHARMACEUTICALS, INC., priority 2018, published 2021)
“And” between values parts separate entries of the source, which are not always exact repeats. Equal entries are not always repeated. Where two headings read alike, the source gives them in different places.

Assays:
[1] = Percentage recovery of radioactive dose (expired CO2, urine, feces, cage rinse and wipe); details: IV 10 mg/kg, Subject 1006
Description: The plasma-time course, routes and rates of excretion, and tissue distribution of radioactivity following a single oral dose of ^14C-labeled citrate or single oral dose of ^14C-labeled succinate were analyzed in rats.
Formulations were prepared on the day prior to dosing.
CD® rats were obtained from Charles River Laboratories. Animals were 9-11 weeks in age at beginning of study.
Animals given intravenous ^14C-succinate were not kept in a fasting state. ^14C-succinate was administered by tail vein injection.
Following oral dosing, the tube and dose site were wiped with gauze, which was collected for subsequent radioanalysis. Following IV dosing, the needle and dose site were wiped with gauze, which was collected for subsequent radioanalysis. The dose site wipe total radioactivity was subtracted from the total dose administered, to determine dose loss, according to SOP ADME.
Urine and feces were collected at 0-24 hours post-dose and stored on wet ice. Expired CO2 was collected at 0-8 hours and 8-24 hours post-dose by drawing air through traps containing 2 N NaOH according to MPI Research SOP. Samples were stored at ambient temperature and weighed. Aliquots were submitted for radioanalysis.
At 24 hours post-dose, cages were rinsed with a 1% trisodium phosphate (TSP) solution and wiped with gauze pads. The final cage rinse samples and cage wipe samples were collected into separate appropriate containers, and the weight of each cage rinse and cage wipe were recorded.
Samples were analyzed for radioactivity by liquid scintillation counting (LSC) for at least 5 minutes or 100,000 cumulative counts. Samples were analyzed in triplicate.

[2] = for Bioavailability: Oral 50 mg/kg vs IV 10 mg/kg
Description: Blood samples were collected up to 8 hours post-dose, and plasma concentrations of the test articles were determined by LC-MS/MS. Pharmacokinetic parameters were determined using Phoenix WinNonlin (v8.0) software.
Plasma samples were extracted and analyzed using the methods described in the section on Sample Extraction. All data are expressed as ng/mL of the free base. Samples that were below the limit of quantification were not used in the calculation of averages.
Pharmacokinetic parameters were determined with Phoenix WinNonlin (v8.0) software using a non-compartmental model. The maximum plasma concentrations (C0) after IV dosing were estimated by extrapolation of the first two time points back to t=0. The maximum plasma concentration (Cmax) and the time to reach maximum plasma concentration (Tmax) after PO dosing were observed from the data. The area under the time concentration curve (AUC) was calculated using the linear trapezoidal rule with calculation to the last quantifiable data point, and with extrapolation to infinity if applicable. […] Mean residence time, MRT, was calculated by dividing the area under the moment curve (AUMC) by the AUC. Clearance (CL) was calculated from dose/AUC. Steady-state volume of distribution (Vss) was calculated from CL*MRT (mean residence time). Bioavailability was determined by dividing the individual dose-normalized PO AUClast values by the average dose-normalized IV AUClast value. Any samples below the limit of quantitation (1 ng/mL) were treated as zero for pharmacokinetic data analysis.
Standards were prepared in Sprague-Dawley rat plasma containing sodium heparin as the anticoagulant. Working solutions were prepared in 50:50 acetonitrile:water and then added to the rat plasma to make calibration standards to final concentrations of 2000, 1000, 500, 100, 50.0, 10.0, 5.00, 2.50, and 1.00 ng/mL. Standards were treated identically to the study samples.
Plasma samples were manually extracted using acetonitrile in a 96-well plate as outlined in Table 15.

[3] = IV 10 mg/kg, extrapolated to t = 0, mean
[4] = IV 10 mg/kg, individual Rat 598, 599, 600, 10 mg/kg
[5] = Oral 50 mg/kg, individual Rat 601, 602, 603, 50 mg/kg

For O=C(O)CCC(=O)O [^14C-succinate], the “Percentage recovery of radioactive dose” value ([1]; Cage rinse, 0-24 hr) was 0.1 % recovery, the “Percentage recovery of radioactive dose” value ([1]; Cage wipe, 24 hr) was 0.0 % recovery and the “Percentage recovery of radioactive dose” value ([1]; Expired trap 1, 0-8 hr (line r8)) was 54.8 % recovery. For the same compound, the “Percentage recovery of radioactive dose” value ([1]; Expired trap 1, 0-8 hr (line r9)) was 4.6 % recovery, the “Percentage recovery of radioactive dose” value ([1]; Expired trap 1, 0-8 hr (line r10)) was 0.4 % recovery and the “Percentage recovery of radioactive dose” value ([1]; Expired trap 1, 0-8 hr (line r12)) was 1.3 % recovery. For the same compound, the “Percentage recovery of radioactive dose” value ([1]; Expired trap 1, 0-8 hr (line r13)) was 0.7 % recovery, the “Percentage recovery of radioactive dose” value ([1]; Expired trap 1, 0-8 hr (line r14)) was 0.3 % recovery and the “Percentage recovery of radioactive dose” value ([1]; Feces, 0-24 hr) was 0.2 % recovery. For the same compound, the “Percentage recovery of radioactive dose” value ([1]; Subtotal of expired traps (line r11)) was 59.8 % recovery, the “Percentage recovery of radioactive dose” value ([1]; Subtotal of expired traps (line r15)) was 2.3 % recovery and the “Percentage recovery of radioactive dose” value ([1]; Total) was 65.265 % recovery. For the same compound, the “Percentage recovery of radioactive dose” value ([1]; Urine, 0-24 hr) was 2.9 % recovery.

For O=[13C](O)[13CH2][13CH2][13C](=O)O [^13C4-succinate], the Plasma concentration ([2]; IV 10 mg/kg, 0.083 hr, individual Rat 598, 599, 600, 10 mg/kg) was 8050 ng/mL and 6880 ng/mL and 8410 ng/mL, the Plasma concentration ([2]; IV 10 mg/kg, 0.083 hr, mean) was 7780 ng/mL and the Plasma concentration ([2]; IV 10 mg/kg, 0.50 hr, individual Rat 598, 599, 600, 10 mg/kg) was 91.0 ng/mL and 99.8 ng/mL and 144 ng/mL. For the same compound, the Plasma concentration ([2]; IV 10 mg/kg, 0.50 hr, mean) was 112 ng/mL, the Plasma concentration ([2]; IV 10 mg/kg, 1.0 hr, individual Rat 598, 599, 600, 10 mg/kg) was 27.0 ng/mL and 9.43 ng/mL and 29.5 ng/mL and the Plasma concentration ([2]; IV 10 mg/kg, 1.0 hr, mean) was 22.0 ng/mL. For the same compound, the Plasma concentration ([2]; IV 10 mg/kg, 2.0 hr, individual Rat 598, 599, 600, 10 mg/kg) was 10.3 ng/mL and 9.06 ng/mL and 19.9 ng/mL, the Plasma concentration ([2]; IV 10 mg/kg, 2.0 hr, mean) was 13.1 ng/mL and the Plasma concentration ([2]; IV 10 mg/kg, 4.0 hr, individual Rat 598, 599, 600, 10 mg/kg) was 4.79 ng/mL and 6.25 ng/mL and 6.15 ng/mL. The Plasma concentration ([2]; IV 10 mg/kg, 4.0 hr, mean) was 5.73 ng/mL, the Plasma concentration ([2]; IV 10 mg/kg, 8.0 hr, individual Rat 598, 599, 600) was “BLOQ (BLOQ: below the limit of quantitation (1 ng/mL))” and the tmax ([2]; IV 10 mg/kg, extrapolated to t = 0, individual Rat 598, 599, 600) was 0 min. For the same compound, the C0 ([2]; IV 10 mg/kg, extrapolated to t = 0, individual Rat 598, 599, 600, 10 mg/kg) was 21.947 µg/mL and 21.392 µg/mL and 17.434 µg/mL, the C0 [2, 3] was 20.257 µg/mL and the tmax [2, 3] was 0 min. The AUClast [2, 4] was 2.215 µg·h/mL and 1.958 µg·h/mL and 2.291 µg·h/mL, the “AUC∞” value [2, 4] was 2.223 µg·h/mL and 2.902 µg·h/mL and 2.303 µg·h/mL and the CL [2, 4] was 4.50 L/h/kg and 5.00 L/h/kg and 4.34 L/h/kg. The “Dose-normalized AUClast” value [2, 4] was 221 kg·ng·h/mL/mg and 196 kg·ng·h/mL/mg and 229 kg·ng·h/mL/mg, the “Dose-normalized AUC∞” value [2, 4] was 222 kg·ng·h/mL/mg and 290 kg·ng·h/mL/mg and 230 kg·ng·h/mL/mg and the MRTlast [2, 4] was 6.12 min and 5.69 min and 8.4 min. The Vss [2, 4] was 0.561 L/kg and 1.65 L/kg and 0.735 L/kg, the t1/2 [2, 4] was 75.6 min and 289 min and 78 min and the AUClast ([2]; IV 10 mg/kg, mean) was 2.155 µg·h/mL. For the same compound, the “AUC∞” value ([2]; IV 10 mg/kg, mean) was 2.176 µg·h/mL, the CL ([2]; IV 10 mg/kg, mean) was 4.61 ± 0.341 L/h/kg and the “Dose-normalized AUC∞” value ([2]; IV 10 mg/kg, mean) was 218 kg·ng·h/mL/mg. It also gave an MRTlast ([2]; IV 10 mg/kg, mean) of 6.78 min, a Vss ([2]; IV 10 mg/kg, mean) of 0.982 ± 0.584 L/kg and a t1/2 ([2]; IV 10 mg/kg, mean) of 148 ± 122 min. For the same compound, the “Dose-normalized AUClast” value ([2]; IV 10 mg/kg, mean, 10 mg/kg) was 215 kg·ng·h/mL/mg, the “Dose-normalized AUClast” value ([2]; IV 10 mg/kg, mean, listed as 13C4-Succinate, 10 mg/kg) was “^2Bioavailability determined by dividing the individual oral dose-normalized AUClast values by the average IV dose normalized AUClast value 215 hr*kg*ng/mL/mg from previous study. hr · kg · ng/mL/mg” and the Bioavailability ([2]; individual Rat 601, 602, 603) was 0.726% and 0.191% and 1.64%. For the same compound, the Bioavailability ([2]; mean) was 0.854±0.735%, the Plasma concentration ([2]; Oral 50 mg/kg, 0.50 hr, individual Rat 601, 602, 603, 50 mg/kg) was 75.4 ng/mL and 27.8 ng/mL and 186 ng/mL and the Plasma concentration ([2]; Oral 50 mg/kg, 0.50 hr, mean) was 96.4 ng/mL. For the same compound, the Plasma concentration ([2]; Oral 50 mg/kg, 1.0 hr, individual Rat 601, 602, 603, 50 mg/kg) was 3.78 ng/mL and 3.00 ng/mL and 5.66 ng/mL, the Plasma concentration ([2]; Oral 50 mg/kg, 1.0 hr, mean) was 4.15 ng/mL and the Plasma concentration ([2]; Oral 50 mg/kg, 2.0 hr, individual Rat 601, 602, 603, 50 mg/kg) was 1.29 ng/mL and BLOQ (BLOQ: below the limit of quantitation (1 ng/mL)) and 2.25 ng/mL. The Plasma concentration ([2]; Oral 50 mg/kg, 2.0 hr, mean) was 1.77 ng/mL, the Plasma concentration ([2]; Oral 50 mg/kg, 4.0 hr, individual Rat 601, 602, 603) was “BLOQ (BLOQ: below the limit of quantitation (1 ng/mL))” and the Plasma concentration ([2]; Oral 50 mg/kg, 8.0 hr, individual Rat 601, 602, 603) was “BLOQ (BLOQ: below the limit of quantitation (1 ng/mL))”. The tmax ([2]; Oral 50 mg/kg, individual Rat 601, 602, 603) was 15 min, the AUClast [2, 5] was 0.0783 µg·h/mL and 0.0206 µg·h/mL and 0.177 µg·h/mL and the Cmax [2, 5] was 0.186 µg/mL and 0.0375 µg/mL and 0.408 µg/mL. The “Dose-normalized AUClast” value [2, 5] was 1.57 kg·ng·h/mL/mg and 0.411 kg·ng·h/mL/mg and 3.54 kg·ng·h/mL/mg, the MRTlast [2, 5] was 22.9 min and 24.2 min and 22.7 min and the AUClast ([2]; Oral 50 mg/kg, mean) was 0.092 µg·h/mL. It also gave a Cmax ([2]; Oral 50 mg/kg, mean) of 0.211 ± 0.186 µg/mL, an MRTlast ([2]; Oral 50 mg/kg, mean) of 23.3 min and a tmax ([2]; Oral 50 mg/kg, mean) of 15 min. For the same compound, the “Dose-normalized AUClast” value ([2]; Oral 50 mg/kg, mean, 50 mg/kg) was 1.84 ± 1.58 kg·ng·h/mL/mg and 1.84 kg·ng·h/mL/mg, the “Time post dosing at which maximum plasma concentrations were observed” value ([2]; PO 50 mg/kg) was 15 min and the Adverse reactions ([2]; intravenous (10 mg/kg) and oral (50 mg/kg) dosing) was “No adverse reactions were observed”.
